Assay results published in publication PMC4738305, “Metabolism and Disposition of Aditoprim in Swine, Broilers, Carp and Rats” (Scientific Reports, 2016).
Where two headings read alike, the source gives them in different places.

What was measured:
[1] = Metabolite profiling of ADP in excreta, plasma and bile (LC-v.ARC/MS-IT-TOF); assay type: in vivo, broilers; conditions: for percentage of the individual metabolite compared with the total concentration of ADP-related: within 6 h after dosing; for Average percentage of ADP and its metabolites in total dose: Broilers, Excreta, single oral 5 mg/kg b.w. ^3H-ADP
Protocol: (§1) Animals (4 swine, 6 broilers, 6 carp, and 3 male and 3 female rats) were housed individually in clean, suspended wire-mesh metabolism cages, designed to separate the urine from the feces (carp were raised in individual aquaria). Each animal was weighed and assigned with a permanent identification number. A single dose of ^3 H-ADP (5 mg/kg b. w., 0.1 Ci/g) was administered via the oral gavage. Excreta were collected on ice at the pre-administration, in the period of 6, 12, and 24 h on day 1 d, and afterwards, intermittently in the period of 24 h up to 14 d. The piscine excreta were collected by changing and collecting raised water. The total volume or weight of each sample was measured and homogenized. The total radioactivity levels were determined through LSC for the recovery calculations. After the preparation, the samples were analyzed through LC/MS-IT-TOF with v. ARC radiometric detection (XenoBioticLaboratories, Inc.) for metabolite profiling. The pretreatment samples were used as controls to determine the background radioactivity or the endogenous nondrug-related ions observed within respective matrices or their extracts.
(§2) A total of 36 animals from each species (swine n = 24) were randomly assigned to six equal treatment groups and administered a single daily dose of ^3 H-ADP at 5 mg/kg b. w. (0.1 Ci/g) through oral gavage for 7 consecutive days. All the animals were housed on the basis of their group in the cages or aquaria throughout the whole study period. A group of animals was slaughtered through exsanguination under diethyl ether inhalation of anesthesia in the period of 6 h, 1, 3, 7, 14, and 21 d after the administration. The blood samples were immediately collected into the heparinized tubes and was centrifuged at 1920 × g at 4 °C for 10 min to obtain the plasma. The tissues from the heart, liver, spleen, lung, kidney, craw (broilers), stomach, intestine, fat, skin, muscle, thymus, pancreas, bile, bladder, hair (scale for carp), genital gland, adrenal glands, swim bladder (carp), brain, lymph, and bursa (broilers) were carefully excised and collected. The tissues were thoroughly rinsed with the deionized water to remove the residuary blood, blotted to dryness, and finally to perform the homogenization. In order to avoid cross-contamination the dissecting instruments were washed during the tissue procurements. The blank tissues were collected in order to provide control matrices. The total radioactivity levels in each sample were determined through LSC. The samples extracted from the plasma, bile, and tissues of the liver, kidney, muscle, and fat/skin were analyzed through LC/MS-IT-TOF and v. ARC radiometric detection for metabolite profiling. The blank samples were used as control to determine the background radioactivity or the endogenous nondrug-related ions observed within respective matrices or their extracts.
(§3) For metabolite profiling, the urine and feces samples from each animals were pooled proportionally to the excreted amount in each sampling period from 0 to 6 h, 6 h to 1 d, 1 to 3 d, 3 to 7 d, and 7 to 14 d post-dose, respectively. All samples were fully homogenized before the process. The pre-dose and blank samples served as the controls for determining the background radioactivity or the endogenous, nondrug-related ions observed within respective matrices or their extracts.
(§4) The urine samples (plasma, bile and raised water for carp) was subjected to solid-phase extraction with an Oasis MCX cartridge (3 mL, […]; Waters, Milford, MA, USA) for metabolite purification and enrichment. The pH value was adjusted to 2.8–3.2 by adding 1 M hydrochloric acid (HCl), and 2 mL of the sample was transferred into MCX cartridge, which was preconditioned with 3 mL of methanol and 3 mL of 0.1 mol/L HCl solution. The cartridge was washed with 3 mL of 0.1 mol/L HCl solution and was eluted with 5 mL of NH4OH/methanol (4:96, v:v). The effluent was concentrated to dryness under a stream of nitrogen at 40 °C. […]

[2] = as above; assay type: in vivo, rats; conditions: for Average percentage of ADP and its metabolites in total dose: Rat, single oral 5 mg/kg b.w. ^3H-ADP; for percentage of the individual metabolite compared with the total concentration of ADP-related: within 6 h after dosing
Protocol: as §1, §2, §3, §4

[3] = Concentration and elimination of ADP and its metabolites in liver, kidney, muscle, fat/skin after oral ^3H-ADP for 7 d; assay type: in vivo, swine; conditions: for half-life: pig, po; for concentration at 0.25 d / concentration at 1 d / concentration at 3 d / concentration at 7 d / concentration at 14 d: swine, oral, 5 mg/kg b.w.
Protocol: as §2
The feces and tissues (2 g) were diluted with a mixture of methanol and chloroform (1:3, v:v; 2 mL/g homogenate). This procedure was carried out in a fume hood for the safety aspects. The pH value was adjusted to 9.0 with NH4OH. The mixture was vortexed and sonicated for 5 min and 10 min, respectively, and finally the samples were centrifuged at 7690 × g for 10 min. The supernatant was aspirated and then transferred into a new centrifuge tube. The obtained pellet was again subjected to the same process of vortex, ultrasonication, extraction, and centrifugation. The combined supernatant was concentrated under a stream of nitrogen in a water bath at 40 °C. The residue was reconstituted with 0.3 mL of methanol–water (1:9, v:v) before the injection into the LC-v. ARC/MS-IT-TOF system for analysis.
ADP and its metabolites in the prepared samples were determined with a v. ARC radiometric detector and a hybrid IT/TOF mass spectrometer connected to the HPLC system (Shimadzu Corp., Kyoto, Japan). The LC system was equipped with a solvent delivery pump (LC-20AD), an auto-sampler (SIL-20AC), a degasser (DGU-20 A 3), a photodiode array detector (SPD-M20A), a communication base module (CBM-20 A), and a column oven (CTO-20AC). The chromatographic separation was achieved by using an Agilent extend-C18 column (2.1 mm × 150 mm, 5 μm) with a gradient mobile phase of A (0.01% ammonia and 5 mM ammonium acetate in water) and B (methanol) at a flow rate of 0.2 mL/min. The column temperature was maintained at 35 °C. Various HPLC methods were performed because of the large number of different metabolites to be analyzed. For the porcine sample, method 1 started at 5% B and increased to 20% B over 35 min, then to 55% B by 60 min, followed by re-equilibration for another 10 min. For the remaining samples, method 2 started at 10% B and increased to 60% B over 30 min, subsequently was maintained at 60% B for an additional 10 min, and then changed to 90% B over 2 min and maintained for 2 min. Afterwards, a re-equilibration step (decreased to 10% B over 1 min and maintained at 10% B for additional 9 min) was followed. For each matrix, more than 98% of the radioactivity injected into the column was eluted during the running time of the gradient program. […]

[4] = swine kidney, after 5 mg/kg b. w. for 7 days, read-out: t1/2 of the individual compound (converted)
[5] = swine liver, after 5 mg/kg b. w. for 7 days, read-out: t1/2 of the individual compound (converted)
[6] = swine muscle, after 5 mg/kg b. w. for 7 days, read-out: t1/2 of the individual compound (converted)
[7] = tissues (liver, kidney, muscle, fat/skin), 5 mg/kg, swine tissues, read-out: t1/2 of the individual compound, range over tissues

Row | Structure (SMILES) | percentage of the individual metabolite compared with the total concentration of ADP-related ([1]; Broilers Extra (excreta)) [%] | percentage of the individual metabolite compared with the total concentration of ADP-related ([1]; Broilers Plasma) [%] | Average percentage of ADP and its metabolites in total dose [1] [%] | Average percentage of ADP and its metabolites in total dose ([2]; Feces) [%] | Average percentage of ADP and its metabolites in total dose ([2]; Urine) [%] | percentage of the individual metabolite compared with the total concentration of ADP-related ([2]; Rats Feces) [%] | percentage of the individual metabolite compared with the total concentration of ADP-related ([2]; Rats Plasma) [%] | percentage of the individual metabolite compared with the total concentration of ADP-related ([2]; Rats Urine) [%] | half-life [3, 4] [h] | half-life [3, 5] [h] | concentration at 0.25 d ([3]; fat) [ng/g] | concentration at 0.25 d ([3]; kidney) [ng/g] | concentration at 1 d ([3]; kidney) [ng/g] | concentration at 3 d ([3]; kidney) [ng/g] | concentration at 0.25 d ([3]; liver) [ng/g] | concentration at 1 d ([3]; liver) [ng/g] | concentration at 3 d ([3]; liver) [ng/g] | concentration at 0.25 d ([3]; muscle) [ng/g] | concentration at 1 d ([3]; muscle) [ng/g] | half-life [3, 6] [h] | other results
1 | COc1cc(Cc2cnc(N)nc2N)cc(OC)c1N [A2, N-didesmethyl-ADP] | 6.5 | 12.6 | 4.8 | 0.7 | 1.1 | 0.3 | 6.0 | 2.6 | 10.1 | 23.8 | 70 ± 10 | 6360 ± 1040 | 1300 ± 400 | 20 ± 10 | 2440 ± 480 | 840 ± 110 | 310 ± 80 | 160 ± 40 | 50 ± 10 |  | half-life ([3]; 5 mg/kg, kidney and liver of swine and rat, read-out: t1/2 of the individual compound, range over tissues): 10.1 to 38.6 h
2 | COc1cc(Cc2cnc(N)nc2N)cc(OC)c1N(C)C [A0, 2,4-Diamino-5-[4-(dimethylamino)-3,5-dimethoxybenzyl] pyrimidine] | 63.2 | 51.6 | 64.3 | 14.0 | 61.3 | 79.4 | 75.0 | 71.2 | 80.9 | 105 | 1270 ± 430 | 19000 ± 8810 | 4160 ± 2000 | 1080 ± 220 | 7600 ± 1040 | 3010 ± 900 | 1320 ± 270 | 1490 ± 390 | 890 ± 220 | 38.9 | half-life ([3]; swine fat, after 5 mg/kg b. w. for 7 days, read-out: t1/2 of the individual compound (converted)): 80.9 h; half-life [3, 7]: 38.9 to 105 h; share of the sample radioactivity in the detected tissues ([3]; swine liver, kidney, muscle, fat, over the sampling times): more than 42%; concentration at 1 d ([3]; fat): 510 ± 120 ng/g; concentration at 3 d ([3]; fat): 330 ± 70 ng/g; concentration at 7 d ([3]; fat): 150 ± 30 ng/g; concentration at 7 d ([3]; kidney): 360 ± 90 ng/g; concentration at 14 d ([3]; kidney): 110 ± 20 ng/g; concentration at 7 d ([3]; liver): 820 ± 140 ng/g; concentration at 14 d ([3]; liver): 240 ± 50 ng/g; concentration at 3 d ([3]; muscle): 380 ± 90 ng/g; concentration at 7 d ([3]; muscle): 70 ± 10 ng/g
3 | CNc1c(OC)cc(Cc2cnc(N)nc2N)cc1OC [A1, N-monodesmethyl-ADP] | 12.8 | 23.4 | 13.7 | 2.7 | 13.8 | 20.4 | 19.0 | 14.7 | 21.8 | 25 | 300 ± 70 | 15400 ± 5300 | 3430 ± 1250 | 160 ± 40 | 4620 ± 850 | 1650 ± 330 | 640 ± 110 | 850 ± 250 | 150 ± 40 | 17.5 | half-life [3, 7]: 17.5 to 25 h; concentration at 1 d ([3]; fat): 60 ± 10 ng/g; concentration at 7 d ([3]; kidney): 20 ng/g; concentration at 3 d ([3]; muscle): 50 ± 10 ng/g
